According to patent publication US20240009175A9, “TETRAZOLE DERIVATIVES” (Merck Patent GmbH, priority 2020, published 2024):

What was measured:
[1] = target: human rec ACSS2 (Homo sapiens (Human), UniProt Q9NR19); assay: Biochemical activity ACSS2 assay (AMP-Glo); settings: human recombinant ACSS2, AMP-Glo, 180 min at 37° C.
Text: Biochemical Activity ACSS2 Assay (IC50 ACSS2 Biochemical)
The biochemical activity assay for ACSS2 is based on the detection of released AMP by AMP-Glo™ Assay kit (Promega, Madison). The assay is run in three steps: the enzymatic reaction in which human rec ACSS2 activates acetate with ATP and Coenzyme A as cosubstrates to acetyl-CoA thereby releasing AMP and the detection reaction of AMP by AMP Glo assay in which after the destruction of the residual ATP with AMP Glo reagent 1 produced AMP is converted to ATP that is measured in a luciferase assay system (detection reagent). The ACSS2 activity correlates with the detected luminescence signal.
The assay was performed in Perkin Elmer 384 well white Proxiplates in a total volume of 8 μl.
1 nM (fc)C-term myc tagged ACSS2 (human, recombinant, Origene, Rockville, US) and a mixture of 100 μM (fc) ATP, 100 μM (fc) Coenzyme A and 500 μM (fc) sodium acetate were incubated in a total volume of 5 μl (50 mM Hepes, 1 mM Mg-chloride, 150 mM NaCl, 1 mM DTT, 0.01% (w/v) BSA, 0.3% DMSO, pH 7.5) in the absence or presence of the test compound (10 dilution concentrations, start conc 30 μM) for 180 min at 37° C. The reaction was stopped and residual ATP destroyed by the addition of 1 μl AMP Glo reagent solution (Promega, Madison, US). After 1h incubation at room temperature 2 μl of AMP Glo detection reagent was added and the assay was incubated for 0.75 hr at room temperature. The luminescence signal was measured with an Envision multimode reader (Perkin Elmer LAS Germany GmbH) at 700 nm in luminescence mode. The full value used was the inhibitor-free reaction. The pharmacological zero value was generated by addition of ACSS2 inhibitor (Ac-CoA Synthase Inhibitor—CAS 508186-14-9-Calbiochem) in a final concentration of 5 μM. The inhibitory values (IC50) were determined using the program Assay Analyzer® from GeneData.

[2] = target: ACSS2 (Homo sapiens (Human), UniProt Q9NR19); assay: Cellular assay of 14C acetate incorporation into histones (IC50 ACSS2 cellular histone); type: cell-based; settings: HCT-15 cells
Text: Cellular Assay of ^14C Acetate Incorporation into Histones (IC50 ACSS2 Cellular Histone)
This protocol describes a cellular assay capable to quantify endogenous histone acetylation activity in the human HCT-15 cancer cell line following the incorporation of extracellularly administered radiolabeled ^14C acetate with a scintillation based read out on acid extracted histones.
HCT-15 cells are trypsinized, washed and suspended in DMEM culture medium supplemented with penicillin/streptomycin (100 U/mL), sodium pyruvate (1 mM), and 10% FBS
Compounds serial dilutions are prepared in 96-well V-bottom microplate from 10 mM stock solutions in DMSO. From these dilutions 0.5 μl are transferred to a fresh plate including pure DMSO as negative control. The dilutions are prepared such, that the final concentration in the assay is 1/400 of the concentration in the serial dilution. The final DMSO concentration in the assay is 0.25%.
The cell suspension is seeded at densities of 2×10^5 cells per 170 μl into individual wells of a 96 well plate each containing 0.5 μl aliquots of compound serial dilutions and are kept for 1 h in a cell incubator. To each well 30 μL of a mixture containing 0.5 mCi/mL of ^14C-acetate with full medium are added. Then, the wells are incubated for 3 hrs in the cell incubator.
Further steps of the procedure should be conducted on ice or instrumentations precooled to 4° C. Cells are sedimented in the 96-well V-bottom microplate by centrifugation (Eppendorf 5804 R) at 1200 rpm for 5 min. The supernatant is removed and the cells are washed twice with 200 μL of PBS-NaB (5 mM sodium butyrate) buffer by iterative resuspension and centrifugation. Finally, the cells are resuspended in 50 μL of TEB (PBS-NaB+0.5% Triton X-100) and left on ice for 10 minutes. After centrifugation at 2300 rpm for 10 minutes at 4° C. the supernatant is removed, the remaining pellet is suspended in 50 μL of 0.2M HCl and incubated over night at 4° C. After incubation the well plate is shaken for 2 minutes in a MTP plate shaker set to 1200 rpm and then centrifuged at 3700 rpm for 10 mins. The lysate is carefully aspirated (˜43 μL) and transferred into a white MTP plate (Greiner bio-one 65509). 90 μL of Ultima Gold XR scintillation cocktail are added and the plates are sealed with a transparent cover tape before mixing vigorously using plate shaker set to 1200 rpm. Radioactivity from ^14C incorporation in the wells is measured as CPM count in a MicroBeta Trilux luminescence counter.

[3] = test system: CHO-K1 cells; assay: Micronucleus assay (MNT) in vitro; type: cell-based; design: key: A: negative, putative negative (micronuclei detected beyond threshold of 60% cyctotoxicity); B: positive; settings: 24 hrs treatment, 0.2 μM to 100 μM
Experimental: The in vitro MNT assay is performed in CHO-K1 cells due to their stable and well-characterized karyotype, high sensitivity and suitability for a high content imaging approach. They have a basal spontaneous micronucleus frequency of 3-4%.
24 hrs after plating CHO-K1 cells are treated with test compounds for 24 hrs (in duplicates; fixed concentration ranges from 0.2 μM to 100 μM in 2-fold dilution steps). After a medium change cells are incubated for 24 hrs with Cytochalasin B to block cytokinesis and are then fixed and nuclei/micronuclei visualized with a DNA stain. Images are acquired with the Molecular Devices high content imagers IXU or IXM and are analyzed with the dedicated MetaXpress software micronucleus module. Criteria for scoring of micronuclei (MN) are the following: • diameter of the MN should be less than ⅓ of the main nucleus • MN should be separated from or marginally overlap with main nucleus (=no blebs) • MN should have similar staining as the main nucleus
At least 1000 binucleated cells are evaluated per treatment replicate. Mitomycin C is used as reference stimulator of micronucleus formation. Cytotoxicity is evaluated in parallel and defined by comparing total nuclei count in compound-treated samples to neutral control samples treated with vehicle only (1% DMSO) (100% cytotoxicity means all cells are dead or lost).
A test compound is regarded as POSITIVE if generation of micronuclei and exhibition of less than 60% cytotoxicity at the same concentration can be observed.
Compounds are scored only in the soluble concentration range.
Experimental data of the compounds shown in Table 1 in the MNT assay are shown in Table 2 below and classified in the following groups: […]

ACSS2, sequence (Q9NR19 whole entry): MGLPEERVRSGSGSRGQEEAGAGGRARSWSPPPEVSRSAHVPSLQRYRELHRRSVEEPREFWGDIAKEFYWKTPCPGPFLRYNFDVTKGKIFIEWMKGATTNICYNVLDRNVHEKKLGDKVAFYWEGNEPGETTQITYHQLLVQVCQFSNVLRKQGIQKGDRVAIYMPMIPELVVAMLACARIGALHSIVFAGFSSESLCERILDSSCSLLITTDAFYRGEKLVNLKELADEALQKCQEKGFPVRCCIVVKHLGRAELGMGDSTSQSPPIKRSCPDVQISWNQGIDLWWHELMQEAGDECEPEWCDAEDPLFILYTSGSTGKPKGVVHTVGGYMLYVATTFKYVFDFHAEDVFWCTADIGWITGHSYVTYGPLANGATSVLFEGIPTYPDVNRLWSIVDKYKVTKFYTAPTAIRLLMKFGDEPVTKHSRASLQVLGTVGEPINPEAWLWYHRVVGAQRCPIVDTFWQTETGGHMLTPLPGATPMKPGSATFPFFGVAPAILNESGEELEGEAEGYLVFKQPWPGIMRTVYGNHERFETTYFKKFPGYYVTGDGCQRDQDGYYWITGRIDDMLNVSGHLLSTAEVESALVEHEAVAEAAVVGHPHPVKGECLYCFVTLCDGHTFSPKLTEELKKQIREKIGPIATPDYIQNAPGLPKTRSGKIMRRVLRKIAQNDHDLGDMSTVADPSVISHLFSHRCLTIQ
human rec ACSS2, sequence (Q9NR19 whole entry): as above

Row | SMILES | IC50 [1] [nM] | IC50 [2] [nM] | MNT [3]
1 | CCc1c(C(O)(c2ccccc2)c2ccn(C)n2)nc2cc(OC)c(-c3nnn[nH]3)cn12 (single isomer, unassigned) [Compound 18, [3-Ethyl-7-methoxy-6-(1H-tetrazol-5-yl)-imidazo[1,2-a]pyridin-2-yl]-(1-methyl-1H-pyrazol-3-yl)-phenyl-methanol] | 10 to 100 | – | –
2 | CCc1cc2nc(C(O)(c3ccccc3)c3ccccc3)c(CC)n2cc1-c1nnn[nH]1 [Compound 1, [3,7-diethyl-6-(1 H-1,2,3,4-tetrazol-5-yl)imidazo[1,2-a]pyridin-2-yl]diphenylmethanol] | 1 to 10 | – | –
3 | CCn1c(C(O)(c2ccccc2C)c2ccccc2C)nc2nc(OC)c(-c3nnn[nH]3)cc21 [Compound 39, [1-ethyl-5-methoxy-6-(1H-1,2,3,4-tetrazol-5-yl)-1H-imidazo[4,5-b]pyridin-2-yl]bis(2-methylphenyl)methanol] | 10 to 100 | 10 to 100 | –
4 | CCc1c(C(O)(c2ccccc2)c2ccccn2)nc2cc(OC)c(-c3nnn[nH]3)cn12 (single isomer, unassigned) [Compound 10, [3-Ethyl-7-methoxy-6-(1H-tetrazol-5-yl)-imidazo[1,2-a]pyridin-2-yl]-phenyl-pyridin-2-yl-methanol] | 10 to 100 | 100 to 10000 | A
5 | CCn1c(C(O)(c2ccccc2)c2ccccn2)nc2nc(OC)c(-c3nnn[nH]3)cc21 (single isomer, unassigned) [Compound 41, [1-ethyl-5-methoxy-6-(1H-1,2,3,4-tetrazol-5-yl)-1H-imidazo[4,5-b]pyridin-2-yl](phenyl)(pyridin-2-yl)methanol] | 10 to 100 | 1 to 10 | –
6 | COc1nc2nc(C(O)(c3ccccc3)c3ccccc3)n(C)c2cc1-c1nnn[nH]1 [Compound 24, [5-methoxy-1-methyl-6-(1H-1,2,3,4-tetrazol-5-yl)-1H-imidazo[4,5-b]pyridin-2-yl]diphenylmethanol] | 0.01 to 1 | – | –
7 | CCn1c(C(O)(c2ccccc2)c2nccs2)nc2nc(OC)c(-c3nnn[nH]3)cc21 (single isomer, unassigned) [Compound 32, [1-ethyl-5-methoxy-6-(1H-1,2,3,4-tetrazol-5-yl)-1H-imidazo[4,5-b]pyridin-2-yl](phenyl)(1,3-thiazol-2-yl)methanol] | 0.01 to 1 | – | A
8 | CCn1c(C(O)(c2ccccc2)c2ccncc2)nc2nc(OC)c(-c3nnn[nH]3)cc21 (racemic) [Compound 43, [1-ethyl-5-methoxy-6-(1H-1,2,3,4-tetrazol-5-yl)-1H-imidazo[4,5-b]pyridin-2-yl](phenyl)(pyridin-4-yl)methanol] | 10 to 100 | 100 to 10000 | –
9 | [2H]c1c([2H])c([2H])c(C(O)(c2c([2H])c([2H])c([2H])c([2H])c2[2H])c2nc3nc(OC)c(-c4nnn[nH]4)cc3n2CC)c([2H])c1[2H] [Compound 63, [1-ethyl-5-methoxy-6-(1H-1,2,3,4-tetrazol-5-yl)-1H-imidazo[4,5-b]pyridin-2-yl]bis[(2,3,4,5,6-^2H5)phenyl]methanol] | 0.01 to 1 | 1 to 10 | –
10 | CCn1c(C(O)(c2ccccc2)c2ccncn2)nc2nc(OC)c(-c3nnn[nH]3)cc21 (racemic) [Compound 25, [1-ethyl-5-methoxy-6-(1H-1,2,3,4-tetrazol-5-yl)-1H-imidazo[4,5-b]pyridin-2-yl](phenyl)(pyrimidin-4-yl)methanol] | 1 to 10 | 1 to 10 | –
11 | CCc1c(C(O)(c2ccccc2)c2ncccn2)nc2cc(OC)c(-c3nnn[nH]3)cn12 (single isomer, unassigned) [Compound 14, [3-Ethyl-7-methoxy-6-(1H-tetrazol-5-yl)-imidazo[1,2-a]pyridin-2-yl]-phenyl-pyrimidin-2-yl-methanol] | 10 to 100 | 100 to 10000 | –
12 | CCn1c(C(O)(c2ccccc2)c2cccnc2)nc2nc(OC)c(-c3nnn[nH]3)cc21 (racemic) [Compound 44, [1-ethyl-5-methoxy-6-(1H-1,2,3,4-tetrazol-5-yl)-1H-imidazo[4,5-b]pyridin-2-yl](phenyl)(pyridin-3-yl)methanol] | 10 to 100 | 100 to 10000 | –
13 | CCc1c(C(O)(c2ccccc2)c2ncccn2)nc2cc(OC)c(-c3nnn[nH]3)cn12 (single isomer, unassigned) [Compound 15, [3-Ethyl-7-methoxy-6-(1H-tetrazol-5-yl)-imidazo[1,2-a]pyridin-2-yl]-phenyl-pyrimidin-2-yl-methanol] | 100 to 10000 | – | –
14 | CCn1c(C(O)(c2ccccc2F)c2ccc(OC(F)F)cc2F)nc2nc(OC)c(-c3nnn[nH]3)cc21 (racemic) [Compound 54, [4-(difluoromethoxy)-2-fluorophenyl][1-ethyl-5-methoxy-6-(1H-1,2,3,4-tetrazol-5-yl)-1H-imidazo[4,5-b]pyridin-2-yl](2-fluorophenyl)methanol] | 1 to 10 | 1 to 10 | –
15 | CCn1c(C(O)(c2ccccc2)c2ccc(OC(F)F)cc2)nc2nc(OC)c(-c3nnn[nH]3)cc21 (racemic) [Compound 53, [4-(difluoromethoxy)phenyl][1-ethyl-5-methoxy-6-(1H-1,2,3,4-tetrazol-5-yl)-1H-imidazo[4,5-b]pyridin-2-yl]phenylmethanol] | 1 to 10 | 10 to 100 | –
16 | CCc1c(C(O)(c2ccccc2)c2ccccn2)nc2cc(Cl)c(-c3nnn[nH]3)cn12 (single isomer, unassigned) [Compound 7, [7-chloro-3-ethyl-6-(1H-tetrazol-5-yl)imidazo[1,2-a]pyridin-2-yl]-phenyl-(2-pyridyl)methanol] | 10 to 100 | – | A
17 | CCc1c(C(O)(c2ccccc2)c2ccn(C)n2)nc2cc(OC)c(-c3nnn[nH]3)cn12 (single isomer, unassigned) [Compound 17, [3-Ethyl-7-methoxy-6-(1H-tetrazol-5-yl)-imidazo[1,2-a]pyridin-2-yl]-(1-methyl-1H-pyrazol-3-yl)-phenyl-methanol] | 100 to 10000 | – | –
